Laboratory results as given in patent US20230233569A1 (Revolution Medicines, Inc., priority 2020, published 2023).

How the values were obtained:
[1] = target: NRAS Q61K (Homo sapiens, UniProt P01111+P62937, Q61K); test: Disruption of BRAF RBD interaction with Ras (FRET / MOA assay, with Cyclophilin A); assay type: biochemical; settings: NRAS Q61K; read-out: NRAS Q61K FRET data IC50
How it was run: (§1)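 IC50 reflects compound-driven Ras:Cyclophilin A ternary complex displacing BRAF RBD, read as lowered TR-FRET ratio relative to DMSO after Eu anti-His (10 nM) and APC anti-GST (50 nM) detection for 1.5 h. Prior incubation 3 h, 25° C, with 12.5 nM GMPPNP-loaded Ras, 50 nM BRAF RBD, 25 μM Cyclophilin A; top compound 30 μM.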

[2] = target: NRAS Q61R (Homo sapiens, UniProt P01111+P62937, Q61R); test: as above; assay type: biochemical; settings: NRAS Q61R; read-out: NRAS Q61R FRET data IC50
How it was run: as §1

[3] = target: KRAS Q61H (Homo sapiens, UniProt P01116+P62937, Q61H); test: as above; assay type: biochemical; settings: KRAS Q61H; read-out: KRAS Q61H FRET data IC50
How it was run: as §1

[4] = target: NRAS WT (Homo sapiens, UniProt P01111+P62937); test: as above; assay type: biochemical; settings: NRAS WT; read-out: NRAS WT FRET data IC50
How it was run: as §1

[5] = system: NCI-H358 (K-Ras G12C); test: CellTiter-Glo cell viability assay, 5-day treatment; assay type: cell-based; settings: Homo sapiens, NCI-H358, 120 h, 5-day treatment; read-out: H358 Cell Viability assay data (K-Ras G12C, IC50)
How it was run: (§2)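 Compounds were dispensed directly onto seeded cells and incubated for 5 days, then plates were equilibrated to room temperature for about 30 minutes before luminescence reading. Signals were expressed as percent of the mean DMSO control and fitted with a four-parameter logistic curve.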

[6] = system: Capan-1 (K-Ras G12V); test: as above; assay type: cell-based; settings: Homo sapiens, CAPAN-1, 120 h, 5-day treatment; read-out: Capan-1 Cell Viability assay data (K-Ras G12V, IC50)
How it was run: as §2

[7] = target: KRAS G12C (Homo sapiens, UniProt P01116+P62937, G12C); test: Disruption of BRAF RBD interaction with Ras (FRET / MOA assay, with Cyclophilin A); assay type: biochemical; settings: read-out: KRAS G12C FRET data, IC50
How it was run: (§3)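 First, compounds at a ten-point threefold dilution series (highest final concentration 30 μM) were incubated with nucleotide-loaded K-Ras, Cyclophilin A and BRAF RBD for 3 h at 25 °C. Next, detection antibodies were added for 1.5 h. Finally, IC50 was calculated from TR-FRET ratio decreases against DMSO controls.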

[8] = target: KRAS G12S (Homo sapiens, UniProt P01116+P62937, G12S); test: as above; assay type: biochemical; settings: read-out: KRAS G12S FRET data, IC50
How it was run: as §3

[9] = target: KRAS WT (Homo sapiens, UniProt P01116+P62937); test: as above; assay type: biochemical; settings: KRAS WT; read-out: KRAS WT FRET data IC50
How it was run: as §3

[10] = target: NRAS G12C (Homo sapiens, UniProt P01111+P62937, G12C); test: as above; assay type: biochemical; settings: NRAS G12C; read-out: NRAS G12C FRET data IC50
[11] = target: KRAS G13C (Homo sapiens, UniProt P01116+P62937, G13C); test: as above; assay type: biochemical; settings: read-out: KRAS G13C FRET data, IC50
How it was run: as §3

[12] = target: KRAS G12V (Homo sapiens, UniProt P01116+P62937, G12V); test: as above; assay type: biochemical; settings: KRAS G12V; read-out: KRAS G12V FRET data IC50
How it was run: as §3

[13] = target: KRAS G13D (Homo sapiens, UniProt P01116+P62937, G13D); test: as above; assay type: biochemical; settings: KRAS G13D; read-out: KRAS G13D FRET data IC50
How it was run: as §3

[14] = target: KRAS G12D (Homo sapiens, UniProt P01116+P62937, G12D); test: as above; assay type: biochemical; settings: read-out: KRAS G12D FRET data, IC50
How it was run: as §3

Chain of KRAS Q61H (P01116 1-169 isoform P01116-2 Q61H limits assumed): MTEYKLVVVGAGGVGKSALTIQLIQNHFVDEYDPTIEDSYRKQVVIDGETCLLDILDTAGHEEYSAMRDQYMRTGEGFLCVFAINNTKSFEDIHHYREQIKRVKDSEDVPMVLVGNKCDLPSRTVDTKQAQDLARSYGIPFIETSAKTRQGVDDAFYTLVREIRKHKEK
Chain of KRAS Q61H (P62937 whole entry): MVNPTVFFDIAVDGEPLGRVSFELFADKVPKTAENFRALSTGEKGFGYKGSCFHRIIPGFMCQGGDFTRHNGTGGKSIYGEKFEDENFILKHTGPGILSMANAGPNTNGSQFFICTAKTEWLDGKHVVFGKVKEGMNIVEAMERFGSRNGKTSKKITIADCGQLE
Chain of KRAS G12S (P01116 1-169 isoform P01116-2 G12S limits assumed): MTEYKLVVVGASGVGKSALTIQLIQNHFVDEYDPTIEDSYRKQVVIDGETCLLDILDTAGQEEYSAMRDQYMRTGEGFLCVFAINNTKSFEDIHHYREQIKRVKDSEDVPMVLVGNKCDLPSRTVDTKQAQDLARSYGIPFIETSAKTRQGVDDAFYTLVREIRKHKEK
Chain of KRAS G12S (P62937 whole entry): as the sequence (P62937 whole entry) above
Chain of NRAS G12C (P01111 whole entry G12C): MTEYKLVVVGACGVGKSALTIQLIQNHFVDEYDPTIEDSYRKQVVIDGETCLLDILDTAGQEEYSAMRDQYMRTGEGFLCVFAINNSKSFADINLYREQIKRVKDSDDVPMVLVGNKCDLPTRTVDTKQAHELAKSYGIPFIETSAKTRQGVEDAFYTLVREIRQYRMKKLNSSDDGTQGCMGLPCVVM
Chain of NRAS G12C (P62937 whole entry): as the sequence (P62937 whole entry) above
Chain of KRAS G13C (P01116 1-169 isoform P01116-2 G13C): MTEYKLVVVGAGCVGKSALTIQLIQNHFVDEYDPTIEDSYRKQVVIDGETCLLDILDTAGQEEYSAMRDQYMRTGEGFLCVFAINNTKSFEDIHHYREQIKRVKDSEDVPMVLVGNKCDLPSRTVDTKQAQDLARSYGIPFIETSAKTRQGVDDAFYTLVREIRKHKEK
Chain of KRAS G13C (P62937 whole entry): as the sequence (P62937 whole entry) above
Chain of KRAS G12C (P01116 1-169 isoform P01116-2 G12C): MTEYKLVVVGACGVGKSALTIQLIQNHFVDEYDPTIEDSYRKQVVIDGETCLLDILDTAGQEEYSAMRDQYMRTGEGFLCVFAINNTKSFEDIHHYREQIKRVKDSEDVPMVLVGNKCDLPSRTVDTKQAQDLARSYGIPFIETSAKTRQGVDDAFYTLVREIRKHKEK
Chain of KRAS G12C (P62937 whole entry): as the sequence (P62937 whole entry) above
Chain of KRAS G13D (P01116 1-169 isoform P01116-2 G13D limits assumed): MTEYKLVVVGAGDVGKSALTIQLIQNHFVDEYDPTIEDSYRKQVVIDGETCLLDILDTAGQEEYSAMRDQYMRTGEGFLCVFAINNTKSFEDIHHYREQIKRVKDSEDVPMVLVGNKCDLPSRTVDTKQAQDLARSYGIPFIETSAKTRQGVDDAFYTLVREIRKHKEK
Chain of KRAS G13D (P62937 whole entry): as the sequence (P62937 whole entry) above
Chain of KRAS WT (P01116 1-169 isoform P01116-2 limits assumed): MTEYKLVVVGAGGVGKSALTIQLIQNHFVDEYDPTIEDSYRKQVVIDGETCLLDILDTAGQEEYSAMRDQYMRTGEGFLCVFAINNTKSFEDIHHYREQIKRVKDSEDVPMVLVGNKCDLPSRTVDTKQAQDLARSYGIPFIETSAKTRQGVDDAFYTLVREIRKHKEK
Chain of KRAS WT (P62937 whole entry): as the sequence (P62937 whole entry) above
Chain of NRAS WT (P01111 whole entry): as the sequence (P01111 whole entry G12C) above, with C12G counted along it
Chain of NRAS WT (P62937 whole entry): as the sequence (P62937 whole entry) above
Chain of NRAS Q61R (P01111 whole entry Q61R): as the sequence (P01111 whole entry G12C) above, with C12G, Q61R counted along it
Chain of NRAS Q61R (P62937 whole entry): as the sequence (P62937 whole entry) above
Chain of KRAS G12D (P01116 1-169 isoform P01116-2 G12D limits assumed): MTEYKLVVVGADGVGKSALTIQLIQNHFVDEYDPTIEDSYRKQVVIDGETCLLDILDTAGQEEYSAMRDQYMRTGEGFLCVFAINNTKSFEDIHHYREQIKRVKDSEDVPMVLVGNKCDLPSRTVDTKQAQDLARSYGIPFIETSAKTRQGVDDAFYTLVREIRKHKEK
Chain of KRAS G12D (P62937 whole entry): as the sequence (P62937 whole entry) above
Chain of NRAS Q61K (P01111 whole entry Q61K): as the sequence (P01111 whole entry G12C) above, with C12G, Q61K counted along it
Chain of NRAS Q61K (P62937 whole entry): as the sequence (P62937 whole entry) above
Chain of KRAS G12V (P01116 1-169 isoform P01116-2 G12V limits assumed): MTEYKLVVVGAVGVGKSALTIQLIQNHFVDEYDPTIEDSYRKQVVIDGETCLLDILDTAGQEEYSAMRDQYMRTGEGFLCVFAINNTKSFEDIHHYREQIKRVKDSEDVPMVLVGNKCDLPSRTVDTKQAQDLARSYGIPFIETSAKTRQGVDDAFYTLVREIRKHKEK
Chain of KRAS G12V (P62937 whole entry): as the sequence (P62937 whole entry) above

Structure (SMILES) | IC50 [1] [nM] | IC50 [2] [nM] | IC50 [3] [nM] | IC50 [4] [nM] | IC50 [5] [nM] | IC50 [6] [nM] | IC50 [7] [nM] | IC50 [8] [nM] | IC50 [9] [nM] | IC50 [10] [nM] | IC50 [11] [nM] | IC50 [12] [nM] | IC50 [13] [nM] | IC50 [14] [nM]
CCn1c(-c2cccnc2[C@H](C)OC)c2c3cc(ccc31)-c1csc(n1)C[C@H](NC(=O)[C@H](C(C)C)N(C)C(=O)N1CC(NC)C1)C(=O)N1CCC[C@H](N1)C(=O)OCC(C)(C)C2 (atropisomer, axis not shown) [Example A337] | 10 to 100 | 100 to 1000 | 100 to 1000 | 100 to 1000 | 10 to 100 | 100 to 1000 | 100 to 1000 | 100 to 1000 | 100 to 1000 | 100 to 1000 | 100 to 1000 | 100 to 1000 | 100 to 1000 | 1000 to 10000
CCn1c(-c2cccnc2[C@H](C)OC)c2c3cc(ccc31)-c1csc(n1)C[C@H](NC(=O)[C@H](C(C)C)N(C)C(=O)N(C)C1CCC1)C(=O)N1CCC[C@H](N1)C(=O)OCC(C)(C)C2 (atropisomer, axis not shown) [Example A349] | 10 to 100 | 10 to 100 | 10 to 100 | 10 to 100 | 10 to 100 | 100 to 1000 | 10 to 100 | 10 to 100 | 10 to 100 | 10 to 100 | 10 to 100 | 10 to 100 | 10 to 100 | 100 to 1000
CCn1c(-c2cccnc2[C@H](C)OC)c2c3cc(ccc31)-c1csc(n1)C[C@H](NC(=O)[C@H](C(C)C)N(C)C(=O)N1CC(CO)C1)C(=O)N1CCC[C@H](N1)C(=O)OCC(C)(C)C2 (atropisomer, axis not shown) [Example A356] | 10 to 100 | 10 to 100 | 10 to 100 | 10 to 100 | < 10 | 10 to 100 | 10 to 100 | 100 to 1000 | 100 to 1000 | 10 to 100 | 100 to 1000 | 100 to 1000 | 100 to 1000 | 100 to 1000
CCn1c(-c2cccnc2[C@H](C)OC)c2c3cc(ccc31)-c1csc(n1)C[C@H](NC(=O)[C@H](C(C)C)N(C)C(=O)N1CCOCC1)C(=O)N1CCC[C@H](N1)C(=O)OCC(C)(C)C2 (atropisomer, axis not shown) [Example A372] | 10 to 100 | 10 to 100 | 10 to 100 | 10 to 100 | < 10 | 10 to 100 | 10 to 100 | 100 to 1000 | 10 to 100 | 10 to 100 | 100 to 1000 | 100 to 1000 | 100 to 1000 | 100 to 1000
CCn1c(-c2cccnc2[C@H](C)OC)c2c3cc(ccc31)-c1csc(n1)C[C@H](NC(=O)[C@H](C(C)C)N(C)C(=O)N1CC[C@@H](O)C1)C(=O)N1CCC[C@H](N1)C(=O)OCC(C)(C)C2 (atropisomer, axis not shown) [Example A376] | 10 to 100 | 100 to 1000 | 10 to 100 | 100 to 1000 | 10 to 100 | 10 to 100 | 10 to 100 | 100 to 1000 | 100 to 1000 | 10 to 100 | 100 to 1000 | 100 to 1000 | 100 to 1000 | 100 to 1000
CCn1c(-c2cccnc2[C@H](C)OC)c2c3cc(ccc31)-c1csc(n1)C[C@H](NC(=O)[C@H](C(C)C)N(C)C(=O)N1CC(C#N)C1)C(=O)N1CCC[C@H](N1)C(=O)OCC(C)(C)C2 (atropisomer, axis not shown) [Example A382] | 10 to 100 | 100 to 1000 | 10 to 100 | 100 to 1000 | < 10 | 10 to 100 | 10 to 100 | 100 to 1000 | 100 to 1000 | 10 to 100 | 100 to 1000 | 100 to 1000 | 100 to 1000 | 100 to 1000
CCn1c(-c2cccnc2[C@H](C)OC)c2c3cc(ccc31)-c1csc(n1)C[C@H](NC(=O)[C@H](C(C)C)N(C)C(=O)N1CCCC1)C(=O)N1CCC[C@H](N1)C(=O)OCC(C)(C)C2 (atropisomer, axis not shown) [Example A400] | 10 to 100 | 10 to 100 | 10 to 100 | 10 to 100 | 10 to 100 | 10 to 100 | 10 to 100 | 10 to 100 | 10 to 100 | 10 to 100 | 100 to 1000 | 100 to 1000 | 100 to 1000 | 100 to 1000
CCn1c(-c2cccnc2[C@H](C)OC)c2c3cc(ccc31)-c1csc(n1)C[C@H](NC(=O)[C@H](C(C)C)N(C)C(=O)N1CCN(C(=O)C3(N(C)C)CC3)CC1)C(=O)N1CCC[C@H](N1)C(=O)OCC(C)(C)C2 (atropisomer, axis not shown) [Example A443] | 10 to 100 | 100 to 1000 | 10 to 100 | 10 to 100 | < 10 | 10 to 100 | 10 to 100 | 100 to 1000 | 10 to 100 | 10 to 100 | 100 to 1000 | 100 to 1000 | 100 to 1000 | 100 to 1000
CCn1c(-c2cccnc2[C@H](C)OC)c2c3cc(ccc31)-c1csc(n1)C[C@H](NC(=O)[C@H](C(C)C)N(C)C(=O)N1C[C@H]3OCCN(C)[C@H]3C1)C(=O)N1CCC[C@H](N1)C(=O)OCC(C)(C)C2 (atropisomer, axis not shown) [Example A451] | 10 to 100 | 100 to 1000 | 100 to 1000 | 100 to 1000 | 10 to 100 | 10 to 100 | 100 to 1000 | 100 to 1000 | 100 to 1000 | 100 to 1000 | 100 to 1000 | 100 to 1000 | 1000 to 10000 | 1000 to 10000
